Source: ChEMBL document CHEMBL1124680, “Cyclic enkephalin analogues containing alpha-amino-beta-mercapto-beta,beta-pentamethylenepropionic acid at positions 2 or 5” (J Med Chem, 1989)

Tests used:
[1] = (§1) Ratio of inhibition of electrically induced contractions in GPI and MVD; type: functional
[2] = species: Cavia porcellus; experiment: The compound was tested In vitro for the ability to inhibit electrically induced contractions of the guinea pig ileum; type: functional
[3] = species: Mus musculus; experiment: The compound was tested In vitro for the ability to inhibit electrically induced contractions of the mouse vas deferens; type: functional
[4] = as §1
[5] = molecular target: Kappa-type opioid receptor (Rattus norvegicus, UniProt P34975); experiment: The compound was tested for the ability to displace opioid receptor kappa specific radioligand [3H]DADLE
[6] = molecular target: T1, Delta-type opioid receptor (Rattus norvegicus, UniProt P33533); experiment: The compound was tested for the ability to displace opioid receptor delta specific radioligand [3H]-DSLET
T1 sequence (P33533 whole entry): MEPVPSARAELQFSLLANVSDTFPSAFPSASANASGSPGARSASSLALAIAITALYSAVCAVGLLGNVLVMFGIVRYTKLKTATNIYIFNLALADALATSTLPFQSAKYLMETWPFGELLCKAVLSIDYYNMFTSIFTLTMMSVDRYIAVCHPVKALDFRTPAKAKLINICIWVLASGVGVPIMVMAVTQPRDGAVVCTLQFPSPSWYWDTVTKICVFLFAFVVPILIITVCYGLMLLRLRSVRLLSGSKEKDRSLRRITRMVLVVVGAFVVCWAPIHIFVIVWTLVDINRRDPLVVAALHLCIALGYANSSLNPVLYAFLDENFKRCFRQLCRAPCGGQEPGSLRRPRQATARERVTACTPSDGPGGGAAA

[7] = molecular target: T2, Mu-type opioid receptor (Rattus norvegicus, UniProt P33535); experiment: The compound was tested for the ability to displace mu-receptor specific radioligand [3H]DAGO
T2 sequence (P33535 whole entry): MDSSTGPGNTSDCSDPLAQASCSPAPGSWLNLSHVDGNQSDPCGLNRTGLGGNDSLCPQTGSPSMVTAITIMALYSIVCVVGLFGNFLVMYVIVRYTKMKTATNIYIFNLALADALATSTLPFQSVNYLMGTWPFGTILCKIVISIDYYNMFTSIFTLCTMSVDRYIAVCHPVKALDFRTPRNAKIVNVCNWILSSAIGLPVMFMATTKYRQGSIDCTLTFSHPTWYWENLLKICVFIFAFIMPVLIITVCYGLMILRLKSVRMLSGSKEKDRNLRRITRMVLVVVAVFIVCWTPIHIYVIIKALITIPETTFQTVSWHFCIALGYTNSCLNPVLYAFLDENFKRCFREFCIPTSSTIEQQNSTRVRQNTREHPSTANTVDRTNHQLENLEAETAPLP

[8] = molecular target: T1, Delta-type opioid receptor; experiment: The compound was tested for the ability to displace receptor specific radioligand [3H]DPDPE
[9] = molecular target: T1, Delta-type opioid receptor; experiment: The compound was tested for the ability to displace delta-receptor specific radioligand [3H]DPDPE
[10] = molecular target: T2, Mu-type opioid receptor; experiment: The compound was tested for the ability to displace Opioid receptor mu 1 specific radioligand [3H]DAGO
[11] = molecular target: T1, Delta-type opioid receptor; experiment: The compound was tested for the ability to displace delta-receptor specific radioligand [3H]DSLET

With `N[C@@H](Cc1ccc(O)cc1)C(=O)N[C@H]1C(=O)NCC(=O)N[C@@H](Cc2ccccc2)C(=O)N[C@H](C(=O)O)CSSC12CCCCC2` (stereo in doubt; 5) [listing 1 of 2 here] the Ratio [1] was < 14.7.

`N[C@@H](Cc1ccc(O)cc1)C(=O)N[C@@H]1CSSC2(CCCCC2)[C@@H](C(=O)O)NC(=O)[C@H](Cc2ccccc2)NC(=O)CNC1=O` gave an IC50 ([2]; Cavia porcellus, Ileum) of 13.3 nM and an IC50 ([3]; Mus musculus, Vas deferens) of 0.0745 nM.

With `N[C@@H](Cc1ccc(O)cc1)C(=O)N[C@H]1C(=O)NCC(=O)N[C@@H](Cc2ccccc2)C(=O)N[C@H](C(=O)O)CSSC12CCCCC2` (stereo in doubt; 6) [listing 1 of 2 here] the Ratio [4] was < 16.7.

`CC1(C)SSC[C@H](C(=O)O)NC(=O)[C@H](Cc2ccccc2)NC(=O)CNC(=O)[C@@H]1NC(=O)[C@@H](N)Cc1ccc(O)cc1` gave an IC50 ([2]; Cavia porcellus, Ileum) of 1350 nM and a Ki [5] of […].

For `CC1(C)SSC[C@@H](NC(=O)[C@@H](N)Cc2ccc(O)cc2)C(=O)NCC(=O)N[C@@H](Cc2ccccc2)C(=O)N[C@H]1C(=O)O`, the IC50 ([2]; Cavia porcellus, Ileum) was 40 nM and the Ki [5] was […].

Compound `N[C@@H](Cc1ccc(O)cc1)C(=O)N[C@@H]1CSSC2(CCCCC2)[C@H](C(=O)O)NC(=O)[C@H](Cc2ccccc2)NC(=O)CNC1=O` has an IC50 ([3]; Mus musculus, Vas deferens) of 0.0564 nM.

With `N[C@@H](Cc1ccc(O)cc1)C(=O)N[C@H]1C(=O)NCC(=O)N[C@@H](Cc2ccccc2)C(=O)N[C@H](C(=O)O)CSSC12CCCCC2` (stereo in doubt; 5) [listing 2 of 2 here] the IC50 [2] was 29900 nM, the Ki [6] was 31.3 nM and the Ki [7] was 1800 nM. For the same compound, the IC50 [3] was > 2040 nM and the Ki [8] was 15 nM.

Compound `CC1(C)SSC[C@@H](NC(=O)[C@@H](N)Cc2ccc(O)cc2)C(=O)NCC(=O)N[C@@H](Cc2ccccc2)C(=O)N[C@@H]1C(=O)O` has an IC50 ([2]; Cavia porcellus, Ileum) of 67 nM and a Ki [5] of […].

Work on `N[C@@H](Cc1ccc(O)cc1)C(=O)N[C@H]1C(=O)NCC(=O)N[C@@H](Cc2ccccc2)C(=O)N[C@H](C(=O)O)CSSC12CCCCC2` (stereo in doubt; 6) [listing 2 of 2 here] yielded an IC50 [2] of 70900 nM, a Ki [9] of 387 nM and a Ki [10] of 4010 nM. The IC50 [3] was > 4240 nM and the Ki [11] was 683 nM.
